Data as given in PubChem BioAssay AID2060486 (Molecular Pharmacology Branch, DTP, NCI, 2025).

Test system: IGROV1 complex spheroids (HUVEC, MSC), viability % test/control
Assay: Anticancer human tumor IGROV1 cell line growth inhibition [GQUAD];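 further: spheroids exposed to compounds for 7 days before readout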;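 on viability, T/C: 100% = DMSO vehicle control viability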
Settings: for IC50: curve of first compound; for viability, T/C: stronger effect = lower value
In short: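 Multi-cell-type spheroids of tumor cells with HUVEC and mesenchymal stem cells, treated with drug combinations. Concentrations descend in half-log steps from near clinical Cmax, or from 10 microM where Cmax is unknown; viability read-out.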

[1] = second compound 0.0316 µM, first compound 0.0316 µM
[2] = second compound 0.0316 µM, first compound 0.1 µM
[3] = second compound 0.0316 µM, first compound 0.316 µM
[4] = second compound 0.0316 µM, first compound 1 µM
[5] = second compound 0.0316 µM, first compound 3.16 µM
[6] = second compound 0.0316 µM, first compound 10 µM
[7] = second compound 0.1 µM, first compound 0.0316 µM
[8] = second compound 0.1 µM, first compound 0.1 µM
[9] = second compound 0.1 µM, first compound 0.316 µM
[10] = second compound 0.1 µM, first compound 1 µM
[11] = second compound 0.1 µM, first compound 3.16 µM
[12] = second compound 0.1 µM, first compound 10 µM
[13] = second compound 0.316 µM, first compound 0.0316 µM
[14] = second compound 0.316 µM, first compound 0.1 µM
[15] = second compound 0.316 µM, first compound 0.316 µM
[16] = second compound 0.316 µM, first compound 1 µM
[17] = second compound 0.316 µM, first compound 3.16 µM
[18] = second compound 0.316 µM, first compound 10 µM
[19] = second compound 1 µM, first compound 0.0316 µM
[20] = second compound 1 µM, first compound 0.1 µM
[21] = second compound 1 µM, first compound 0.316 µM
[22] = second compound 1 µM, first compound 1 µM
[23] = second compound 1 µM, first compound 3.16 µM
[24] = second compound 1 µM, first compound 10 µM
[25] = second compound 3.16 µM, first compound 0.0316 µM
[26] = second compound 3.16 µM, first compound 0.1 µM
[27] = second compound 3.16 µM, first compound 0.316 µM
[28] = second compound 3.16 µM, first compound 1 µM
[29] = second compound 3.16 µM, first compound 3.16 µM
[30] = second compound 3.16 µM, first compound 10 µM
[31] = second compound 10 µM, first compound 0.0316 µM
[32] = second compound 10 µM, first compound 0.1 µM
[33] = second compound 10 µM, first compound 0.316 µM
[34] = second compound 10 µM, first compound 1 µM
[35] = second compound 10 µM, first compound 3.16 µM
[36] = second compound 10 µM, first compound 10 µM

For Cc1cccc(N(C)C(=O)C2C(O)CCN2c2nc(C)cc(C(F)(F)F)c2C#N)c1 (centres undefined) + Cc1[nH]c2ccc(F)cc2c1-c1nc2c3cccnc3c3ncccc3c2[nH]1, the IC50 (second compound 0.0316 µM) was > 10 µM, the IC50 (second compound 0.1 µM) was > 10 µM and the IC50 (second compound 0.316 µM) was > 10 µM. The IC50 (second compound 1 µM) was < 0.0316 µM, the IC50 (second compound 3.16 µM) was < 0.0316 µM and the IC50 (second compound 10 µM) was < 0.0316 µM. The viability, T/C [1] was 108%, the viability, T/C [2] was 82.3% and the viability, T/C [3] was 105%. It also gave a viability, T/C [4] of 76.1%, a viability, T/C [5] of 98% and a viability, T/C [6] of 100%. It also gave a viability, T/C [7] of 105%, a viability, T/C [8] of 82.2% and a viability, T/C [9] of 107%. For the same compound, the viability, T/C [10] was 69.1%, the viability, T/C [11] was 105% and the viability, T/C [12] was 105%. The viability, T/C [13] was 83.7%, the viability, T/C [14] was 53.2% and the viability, T/C [15] was 70%. The viability, T/C [16] was 78.8%, the viability, T/C [17] was 94.7% and the viability, T/C [18] was 76.3%. For the same compound, the viability, T/C [19] was 4%, the viability, T/C [20] was 6.22% and the viability, T/C [21] was 5.36%. For the same compound, the viability, T/C [22] was 4.57%, the viability, T/C [23] was 4.11% and the viability, T/C [24] was 2.68%. The viability, T/C [25] was 3.63%, the viability, T/C [26] was 4.69% and the viability, T/C [27] was 4.7%. For the same compound, the viability, T/C [28] was 4.75%, the viability, T/C [29] was 3.97% and the viability, T/C [30] was 2.92%. For the same compound, the viability, T/C [31] was 4.3%, the viability, T/C [32] was 3.62% and the viability, T/C [33] was 4.75%. For the same compound, the viability, T/C [34] was 3.64%, the viability, T/C [35] was 4.04% and the viability, T/C [36] was 3.25%.

For O=C(c1cc(Cc2n[nH]c(=O)c3ccccc23)ccc1F)N1CCN(C(=O)C2CC2)CC1 + Cc1[nH]c2ccc(F)cc2c1-c1nc2c3cccnc3c3ncccc3c2[nH]1, the IC50 (second compound 0.0316 µM) was 5.34 µM, the IC50 (second compound 0.1 µM) was 3.12 µM and the IC50 (second compound 0.316 µM) was 5.53 µM. The IC50 (second compound 1 µM) was < 0.0316 µM, the IC50 (second compound 3.16 µM) was < 0.0316 µM and the IC50 (second compound 10 µM) was < 0.0316 µM. It also gave a viability, T/C [1] of 97.1%, a viability, T/C [2] of 82.3% and a viability, T/C [3] of 94.9%. For the same compound, the viability, T/C [4] was 66.5%, the viability, T/C [5] was 72.8% and the viability, T/C [6] was 31%. For the same compound, the viability, T/C [7] was 89.1%, the viability, T/C [8] was 83.2% and the viability, T/C [9] was 69.4%. The viability, T/C [10] was 57.3%, the viability, T/C [11] was 62.3% and the viability, T/C [12] was 23.5%. It also gave a viability, T/C [13] of 72.9%, a viability, T/C [14] of 82.4% and a viability, T/C [15] of 74%. The viability, T/C [16] was 82.3%, the viability, T/C [17] was 69.8% and the viability, T/C [18] was 28%. The viability, T/C [19] was 4.09%, the viability, T/C [20] was 3.9% and the viability, T/C [21] was 4.15%. For the same compound, the viability, T/C [22] was 4.33%, the viability, T/C [23] was 6.04% and the viability, T/C [24] was 4.53%. The viability, T/C [25] was 3.99%, the viability, T/C [26] was 3.97% and the viability, T/C [27] was 3.46%. For the same compound, the viability, T/C [28] was 3.87%, the viability, T/C [29] was 4.83% and the viability, T/C [30] was 3.88%. It also gave a viability, T/C [31] of 4.17%, a viability, T/C [32] of 3.02% and a viability, T/C [33] of 3.67%. For the same compound, the viability, T/C [34] was 4.06%, the viability, T/C [35] was 5.08% and the viability, T/C [36] was 4.55%.
